In test [1] the test system is MIA-PaCa2 cells. Nature of the test: MTT cytotoxicity / cell viability assay, MIA-PaCa2. Format: cell-based. Conditions: Homo sapiens, MIA PaCa-2, 72 hours post-treatment, read-out: IC50 values in specified pancreatic cancer cell line. The protocol: (§1) Four human PDAC cell lines were used in this study, including MIA-PaCa2, Panc-1, AsPC1, and BxPC3, in which the MIA-PaCa2, Panc-1 and AsPC1 comprises a KRAS mutation (i.e., KRAS mutant cell lines), and the BxPC3 has a wild-type KRAS gene (see, for example, Wen-Hsuan Chang et al., Cancer Lett. (2021), 517: 66-77; and Radu Pirlog et al., J Clin Invest. (2022), 132(14): e161454). The MIA-PaCa2 cells were cultured in RPMI1640 medium containing 10% fetal bovine serum (FBS) and 1% penicillin/streptomycin. The AsPC1, BxPC3 and Panc-1 cells were cultured in DMEM high glucose medium supplemented with 10% FBS and 1% penicillin/streptomycin.
(§2) Cytotoxicity and cell proliferation were determined by using 3-(4,5-dimethylthiazol-2-yl)-2,5-diphenyltetrazolium bromide (MTT) assay. Specifically, the MIA-PaCa2 and Panc-1 were seeded in a 96-well plate (5×10^3 cells/well). […] The resulting formazan crystals were dissolved using dimethyl sulfoxide (DMSO), and the absorbance was measured at 495 nm using a microplate reader. The cell proliferation ability was quantified as the optical density (OD) value. The cytotoxicity induced by the treatments was determined by calculating the percentage of viable cells (dividing the optical density of the drug-treated samples by that of the control samples). […]

Test [2] relates to BxPC3 cells. Put plainly: MTT cytotoxicity / cell viability assay, BxPC3. It is filed as cell-based. To be noted: Homo sapiens, BXPC-3, 72 hours post-treatment, read-out: IC50 values in specified pancreatic cancer cell line. The protocol:
as §1, §2

For test [3], the system named is AsPC1 cells. Nature of the test: MTT cytotoxicity / cell viability assay, AsPC1. Conditions: Homo sapiens, 72 hours post-treatment, read-out: IC50 values in specified pancreatic cancer cell line. It is filed as cell-based. The protocol:
as §1, §2

The test system of test [4] is MIA-PaCa2 subcutaneous tumor. Nature of the test: Subcutaneous tumor model. It is filed as in vivo, NOD-SCID male mice. Conditions: oral, five times per week for three weeks; mivebresib 1 mg/Kg, rucaparib 10 mg/Kg; FIG. 2. The protocol: The MIA-PaCa2 cells (2×10^6) were suspended in 10 μL phosphate buffered saline (PBS), and then subcutaneously injected to NOD-SCID male mice (6-8 weeks old). After 14 days (the tumor size was about 100-150 mm^3), PBS, mivebresib (1 mg/Kg), rucaparib (10 mg/Kg), or the combination of mivebresib and rucaparib (1 mg/Kg of mivebresib plus 10 mg/Kg of rucaparib) was orally administered to the mice five times per week, for three consecutive weeks. The tumor size was measured using caliper every 2-3 days, until the mice met humane endpoint criteria and were euthanized.
Two tumor models, including subcutaneous and orthotropic tumor models, were used in the example to evaluate the anti-tumor effect of mivebresib and rucaparib on pancreatic cancer. As described in “Materials and Methods”, the tumor-bearing mice were respectively administered with PBS, mivebresib, rucaparib, and the combination of mivebresib and rucaparib. The tumor sizes were monitored by caliper and IVIS® imaging system. The results were respectively depicted in FIG. 2 (subcutaneous tumor model) and FIG. 3 (orthotropic tumor model).

The test system of test [5] is Panc-1 cells. Nature of the test: MTT cytotoxicity / cell viability assay, Panc-1. It is filed as cell-based. Conditions: Homo sapiens, 72 hours post-treatment, read-out: IC50 values in specified pancreatic cancer cell line. The protocol:
as §1, §2

In test [6] the test system is pancreatic cancer. Nature of the test: Overall survival of pancreatic cancer patients with neoadjuvant chemotherapy. It is filed as in vivo, human. To be noted: patients with cisplatin treatment (without: 18.96 months); data not shown. The protocol: Whether neoadjuvant chemotherapy (a chemotherapy that a cancer patient receives before the primary course of surgical treatment) would affect the overall survival of cancer patients was determined in the example. According to the results, the overall survivals of patient with or without cisplatin treatment were respectively 26.36 and 18.96 months (data not shown). Then, the patients receiving the platinum-based therapy were further divided into responder group and non-responder group.

What is called IC50 is the concentration that gives 50% inhibition. Take `CCS(=O)(=O)Nc1ccc(Oc2ccc(F)cc2F)c(-c2cn(C)c(=O)c3[nH]ccc23)c1` [Mivebresib, mivebresib]: the IC50 in test [1] amounted to 0.26 µM; in test [2] it was 0.273 µM; in test [3] it was 0.191 µM; in test [5], 1.41 µM. For the same compound, in test [4], the “tumor growth (tumor size by caliper)” value is listed as “inhibited tumor growth”.

As for `CNCc1ccc(-c2[nH]c3cc(F)cc4c3c2CCNC4=O)cc1` [Rucaparib, rucaparib], the IC50 in test [1] is 2.44 µM; in test [2] it was 2.51 µM; in test [3], 2.36 µM; in test [5], 1.98 µM. The “tumor growth (tumor size by caliper)” value in test [4] was “inhibited tumor growth”.

On to `N.N.[Cl][Pt][Cl]` [cisplatin], for which the overall survival in test [6] is on record as 26.36 months.

The values above are taken from patent US20250049811A1, “METHODS OF TREATING PANCREATIC CANCER BY USING BET INHIBITOR AND PARP INHIBITOR” (NATIONAL CHENG KUNG UNIVERSITY, priority 2023, published 2025).
